{"source": "patent US20170007561A1", "about": "“CONTEMPORANEOUS, HETEROGENEOUSLY-ORIENTED, MULTI-TARGETED THERAPEUTIC MODIFICATION AND/OR MODULATION OF DISEASE BY ADMINISTRATION OF SULFUR-CONTAINING, AMINO ACID-SPECIFIC SMALL MOLECULES” (BioNumerik Pharmaceuticals, Inc., priority 2014, published 2017)", "key": {"[1]": {"target": "T1, Recombinant human ERCC1 (Homo sapiens, UniProt P07992)", "T1 construct": "6xHis (N); purchased Creative BioMart; host or cells: E. coli", "T1 sequence (P07992 whole entry, the tested form may be a part)": "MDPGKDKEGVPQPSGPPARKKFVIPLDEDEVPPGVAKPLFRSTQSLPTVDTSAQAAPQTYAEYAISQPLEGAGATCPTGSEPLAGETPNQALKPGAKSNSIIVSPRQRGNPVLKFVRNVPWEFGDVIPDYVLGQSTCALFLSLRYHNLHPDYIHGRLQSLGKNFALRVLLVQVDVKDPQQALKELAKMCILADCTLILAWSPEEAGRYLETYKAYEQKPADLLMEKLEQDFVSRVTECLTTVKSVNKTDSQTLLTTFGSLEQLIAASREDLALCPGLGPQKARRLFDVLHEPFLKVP", "experiment": "LC-MS of trypsin-digested ERCC1 after incubation with Tavocept", "type": "binding", "conditions": "20 mM Tavocept, LC-MS of tryptic fragments", "experimental": "Recombinant human ERCC1 (1 mg; 27.8 nanomoles, Creative BioMart) was reduced using a vast excess of dithiothreitol (DTT, 100 μl of a 500 mM stock) in ammonium bicarbonate (40 mM, pH 8.0) at 37° C. for 75 minutes (total reaction volume was 900 μL). […] Each 800 μl reaction was then chromatographed over a NAP10 column. This step removed unreacted Tavocept and was used for the buffer control simply to ensure that both samples received the same handling/manipulation during the course of the experiment. The elution volume from each NAP10 column was 1.2 mL. […] Trypsin digestion reactions were incubated for 1 hour at 30° C. and then for 17 hours at room temperature (23° C.). Following the Trypsin digest, the samples were lyophilized to dryness overnight and then resuspended in a volume of approximately 100 μL water and analyzed using LC-MS. A Symmetry C18 HPLC column (Waters, Franklin, Mass.; 3.5 μm; 4.6 mm×75 mm) and a Waters Alliance liquid chromatography system (Waters 2695, Franklin, Mass., USA) coupled to a Micromass single quadropole mass detector (Micromass ZMD, Manchester, UK) were used to analyze fragments from trypsin-digested human ERCC1. The mobile phase contained 0.1% of formic acid throughout the run and the flow rate was 0.35 mL/min. […]"}, "[2]": {"test_system": "bovine brain microtubule protein (α-/β-tubulin)", "experiment": "Electron microscopy of microtubule polymerization reactions", "type": "biochemical", "conditions": "presence and absence of paclitaxel", "experimental": "(1 mM/1 mM/6 μM (v/v/v)). Electron micrograph samples were prepared by gently mixing samples of reactions with an equal volume of 50% sucrose in buffer P (0.1 M PIPES, 1 mM EGTA, pH 6.5) and mounting on carbon-coated grids (400 mesh formvar/carbon, Electron Microscopy Sciences). Grids were washed with cytochrome c (1%) and water and stained with uranyl acetate (1%). Electron microscopy was performed using a Philips 208S electron microscope (Philips Instruments) at an accelerating voltage of 60 kV. Micrographs were taken at 36,000× and 7,000× magnifications."}, "[3]": {"target": "T2, Recombinant human peroxiredoxin 1 (Homo sapiens, UniProt Q06830)", "T2 construct": "purchased SigmaAldrich", "T2 sequence (Q06830 1-199)": "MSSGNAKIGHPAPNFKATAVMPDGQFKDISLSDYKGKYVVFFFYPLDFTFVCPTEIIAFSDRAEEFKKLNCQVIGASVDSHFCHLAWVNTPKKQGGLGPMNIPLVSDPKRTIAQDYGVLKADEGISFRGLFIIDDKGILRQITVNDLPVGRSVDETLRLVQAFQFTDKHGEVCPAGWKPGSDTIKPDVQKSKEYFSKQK", "experiment": "LC-MS of trypsin or chymotrypsin digested Prx 1 after incubation with Tavocept", "type": "binding", "experimental": "Recombinant human peroxiredoxin 1 (purchased from SigmaAldrich; 333 μg; 0.015 micromoles) was reduced using an excess of dithiothreitol (DTT; 35 micromoles) in NH4HCO3 buffer (40 mM, pH 8.0) at 37° C. for 50 minutes (total reaction volume was 750 μL; final Prx concentration was 20 μM; and final DTT concentration was 46 mM). […] (total reaction volume was 500 μL). After 16-18 hours incubation, each reaction was removed and chromatographed using G25 Sephadex columns.\nIn brief, the G25 chromatographed Prx1 incubation reactions were digested with Trypsin Gold. Trypsin Gold was dissolved in 400 μL of NH4HCO3 and 100 μL of acetonitrile. A 100-150 μL volume of this Trypsin Gold stock was then added to 500 μl of the aforementioned final sample with 75 μL of acetonitrile and then the reaction volume was adjusted to a total of 750 μL with NH4HCO3. The sample was incubated for 6 hours at 37° C. Chymotrypsin digests were by dissolving chymotrypsin in 1M HCL. A 50 μL volume of this chymotrypsin stock solution was added to added to 500 μl of the aforementioned final sample along with 10% (v/v) of CaCl2 (100 mM stock). NH4HCO3 buffer was then added to bring the total reaction volume to 750 μL. Chymotrypsin digests were incubated for 16 hours at 30° C. Following digest by either trypsin or chymotrypsin, reactions were lyophilized to dryness overnight and then resuspended in a minimal amount of HPLC grade water prior to LC MS analyses.\nA Symmetry C18 HPLC column (Waters, Franklin, Mass.; 3.5 μm; 4.6×75 mm) and a Waters Alliance liquid chromatography system (Waters 2695; Franklin, Mass.) coupled to a Micromass single quadropole mass detector (Micromass ZMD; Manchester, UK) were used to analyze fragments from trypsin or chymotrypsin digested human Prx1. The mobile phase contained 0.1% of formic acid throughout the run and the flow rate was 0.35 ml/min. […]"}, "[4]": {"target": "T3, human Trx with rat liver TrxR (Homo sapiens, UniProt P10599)", "T3 sequence (P10599 1-105)": "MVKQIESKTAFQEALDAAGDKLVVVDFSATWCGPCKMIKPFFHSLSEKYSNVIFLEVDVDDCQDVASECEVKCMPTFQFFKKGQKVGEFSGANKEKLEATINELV", "experiment": "TrxR/Trx insulin disulfide reduction assay (NADPH oxidation 340 nm, insulin B chain precipitation 650 nm)", "type": "biochemical", "conditions": "Tavocept 0-10 mM, insulin 86 μM"}, "[5]": {"target": "Aminopeptidase N (Homo sapiens, UniProt P15144)", "sequence (P15144 whole entry)": "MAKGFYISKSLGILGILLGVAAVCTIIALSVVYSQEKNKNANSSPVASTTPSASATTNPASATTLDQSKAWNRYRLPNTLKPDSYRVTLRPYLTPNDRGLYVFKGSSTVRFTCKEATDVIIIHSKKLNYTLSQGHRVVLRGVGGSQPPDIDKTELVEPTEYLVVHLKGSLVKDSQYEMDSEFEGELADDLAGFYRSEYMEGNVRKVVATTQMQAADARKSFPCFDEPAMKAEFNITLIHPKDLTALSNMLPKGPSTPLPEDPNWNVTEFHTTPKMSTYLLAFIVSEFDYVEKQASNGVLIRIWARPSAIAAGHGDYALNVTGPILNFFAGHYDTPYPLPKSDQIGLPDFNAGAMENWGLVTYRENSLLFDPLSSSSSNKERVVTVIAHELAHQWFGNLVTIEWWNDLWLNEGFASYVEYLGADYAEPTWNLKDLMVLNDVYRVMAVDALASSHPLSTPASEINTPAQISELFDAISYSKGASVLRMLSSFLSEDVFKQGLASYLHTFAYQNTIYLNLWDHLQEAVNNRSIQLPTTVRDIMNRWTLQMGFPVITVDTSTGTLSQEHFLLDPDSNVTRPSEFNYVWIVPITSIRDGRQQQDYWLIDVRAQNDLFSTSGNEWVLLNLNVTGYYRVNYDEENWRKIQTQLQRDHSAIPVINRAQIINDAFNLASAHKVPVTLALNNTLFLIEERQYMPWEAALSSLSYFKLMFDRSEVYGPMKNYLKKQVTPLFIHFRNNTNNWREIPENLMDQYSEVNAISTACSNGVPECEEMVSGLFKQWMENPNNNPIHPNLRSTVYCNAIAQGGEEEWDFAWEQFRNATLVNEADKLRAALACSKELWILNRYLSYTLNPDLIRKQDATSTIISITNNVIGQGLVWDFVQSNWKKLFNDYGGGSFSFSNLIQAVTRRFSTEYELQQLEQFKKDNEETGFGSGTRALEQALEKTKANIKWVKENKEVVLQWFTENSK", "experiment": "Aminopeptidase N activity (summary Table 27)", "type": "biochemical"}}, "note": "Entries after “also recorded” stand apart in the source; their conditions may differ.", "data": [{"smiles": "O=S(=O)([O-])CCSSCCS(=O)(=O)[O-].[Na+].[Na+]", "note": "[Tavocept, disodium 2,2′-dithio-bis-ethane sulfonate]", "values": [{"measurement": "ERCC1 cysteine residue carrying Tavocept-derived mesna adduct", "setting": "[1]", "result": "Cys238; also recorded: Cys274"}, {"measurement": "abundance of microtubules on EM grids", "setting": "[2]; Tavocept preincubated 20 minutes, qualitative", "result": "reduction in the abundance of microtubules"}, {"measurement": "microtubule morphology", "setting": "[2]; Tavocept", "result": "no effects on overall gross microtubule morphology"}, {"measurement": "Tavocept-derived mesna Adduct detected?", "setting": "[3]; chymotryptic fragment VCPTEIIAF (Cys 52)", "result": "Yes"}, {"measurement": "Tavocept-derived mesna Adduct detected?", "setting": "[3]; chymotryptic fragment […] (Cys 173)", "result": "Yes"}, {"measurement": "Tavocept-derived mesna Adduct detected?", "setting": "[3]; tryptic fragment […] (Cys 173)", "result": "Yes"}, {"measurement": "Effect on TrxR/Trx mediated rate of NADPH oxidation during insulin reduction", "setting": "[4]", "result": "an effect on the TrxR/Trx mediated rate of NADPH oxidation"}, {"measurement": "Cellular consequence of BNP7787-modification and/or modulation: aminopeptidase N", "setting": "[5]", "result": "can inhibit γ-glutamyltranspeptidase and aminopeptidase N enzyme"}]}]}
